We go through 13 compounds from publication PMC9841530 (Journal of Medicinal Chemistry, 2022).

≈ marks a conversion by molar mass, not a printed value. Where two headings read alike, the source gives them in different places.

The target in data set [1] is T1, human CFTR (Homo sapiens, UniProt P13569). As to conditions: 20 μM CFTRinh-172; CHO-K1 cells expressing human CFTR.
In data set [2] the target is T1, human CFTR. The experiment in a line: Apical membrane current in FRT cells expressing human CFTR. The settings on record: 10 μM CFTRinh-172. Type of data set: cell-based.
A further data set has as its target endogenous CFTR channels (Homo sapiens, UniProt P13569). As to conditions: 10 μM CFTRinh-172; primary cultured human conjunctival epithelial cells.
Data set [3] has as its system volume-regulated anion channel (VRAC). The experiment in a line: VRAC activity by YFP fluorescence quenching assay. Type of data set: cell-based. As to conditions: 16d 30 μM, VI-116 10 μM; hypotonic solution 5 min.
The format of data set [4] is in vivo, New Zealand White Rabbit. The settings on record: rabbit; for AUC0-24 / AUC0-inf / AUC0-last: 0.1 mg/eye.
In another data set the test system is IL-17 mRNA. The settings on record: mouse, in vivo.
For data set [5], the system named is conjunctival epithelial (ConjE) cells. The experiment in a line: Conjunctival epithelial cytotoxicity test. As to conditions: 30 μM, 48 h, MTS assay. Type of data set: cell-based, human. Background: Tetrazolium dyes change colour on reduction, which living cells bring about.
For data set [6], the system named is corneal epithelial (CorE) cells. The experiment in a line: Corneal epithelial cytotoxicity test. It counts as cell-based, human. The settings on record: 30 μM, 48 h, MTS assay.
For a further data set, the system named is IL-1β mRNA. The settings on record: mouse, in vivo.
Data set [7] deals with normal female C57BL/6J mice. The experiment in a line: Tear volume in normal mice. Type of data set: in vivo, mouse. As to conditions: for effect on tear volume: 16d up to 1 mM, Cact-3 up to 72 μM.
The subject of a further data set is TNF-α mRNA. The settings on record: mouse, in vivo.
Data set [8] relates to scopolamine-induced dry eye mouse model. The experiment in a line: Tear volume in scopolamine-induced dry eye mouse model. It counts as in vivo. The settings on record: DED mice; 5 μL eye drops three times a day for 10 days; 16d 2060 μM, 0.3% diquafosol sodium.
For a further data set, the system named is MMP-2 mRNA. The settings on record: mouse, in vivo.
For a further data set, the target named is T2, human ANO1 (Homo sapiens, UniProt Q5XXA6).
T2 sequence (Q5XXA6 1-986): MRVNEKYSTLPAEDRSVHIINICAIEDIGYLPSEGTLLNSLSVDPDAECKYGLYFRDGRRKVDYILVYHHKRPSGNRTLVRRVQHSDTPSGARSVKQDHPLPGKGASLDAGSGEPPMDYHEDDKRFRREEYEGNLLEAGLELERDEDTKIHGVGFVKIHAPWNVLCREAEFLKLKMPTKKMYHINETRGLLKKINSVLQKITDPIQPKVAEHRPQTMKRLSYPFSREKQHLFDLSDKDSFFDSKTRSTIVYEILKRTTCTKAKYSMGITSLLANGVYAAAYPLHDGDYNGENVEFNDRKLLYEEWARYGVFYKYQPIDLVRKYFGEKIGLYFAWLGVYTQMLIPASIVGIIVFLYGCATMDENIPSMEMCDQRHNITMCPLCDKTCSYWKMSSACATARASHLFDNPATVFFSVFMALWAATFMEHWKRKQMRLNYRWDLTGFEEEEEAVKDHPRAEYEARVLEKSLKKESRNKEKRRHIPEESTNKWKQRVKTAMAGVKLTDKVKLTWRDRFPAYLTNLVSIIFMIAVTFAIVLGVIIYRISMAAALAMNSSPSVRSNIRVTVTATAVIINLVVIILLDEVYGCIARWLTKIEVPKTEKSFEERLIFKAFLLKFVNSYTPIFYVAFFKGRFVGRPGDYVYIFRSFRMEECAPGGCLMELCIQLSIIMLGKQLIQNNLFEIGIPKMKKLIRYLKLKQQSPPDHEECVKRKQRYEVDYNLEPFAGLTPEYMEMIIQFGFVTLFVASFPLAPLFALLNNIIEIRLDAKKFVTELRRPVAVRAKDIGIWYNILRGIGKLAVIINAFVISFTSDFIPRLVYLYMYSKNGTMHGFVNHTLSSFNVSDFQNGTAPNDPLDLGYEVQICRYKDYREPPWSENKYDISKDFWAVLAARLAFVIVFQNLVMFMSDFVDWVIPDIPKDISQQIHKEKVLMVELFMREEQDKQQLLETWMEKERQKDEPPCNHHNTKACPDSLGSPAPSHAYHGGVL
The experiment in a line: ANO1 apical membrane current in FRT cells expressing human ANO1. It counts as cell-based. The settings on record: 16d 30 μM, Ani9 10 μM; ANO1 activated by 100 μM ATP.

Data set [9] relates to scopolamine-induced dry eye mouse model. The experiment in a line: Corneal erosion grading in scopolamine-induced dry eye mouse model. Type of data set: in vivo. As to conditions: DED mice; 16d 2060 μM three times a day for 10 days; compared to control group.
Data set [10] can be described thus: Maximum solubility for eye drop administration. Type of data set: physicochemical.
Another data set deals with intracellular cAMP. The experiment in a line: Intracellular cAMP measurement in CHO-K1 cells. It counts as cell-based. The settings on record: 30 μM, 10 min, IBMX 100 μM, compared to the control.
Data set [11] in a line: Thermodynamic solubility in PBS. Type of data set: physicochemical. As to conditions: for fold more soluble than Cact-3: PBS solubility vs Cact-3; for Solubility: PBS (pH 7.5), concentration after 90 min of vortexing, ND: not detected.
A further data set has as its target human wild-type CFTR (Homo sapiens, UniProt P13569). The experiment in a line: YFP fluorescence quenching assay of CFTR channel activity. Type of data set: cell-based. As to conditions: for fold less potent than Cact-3: YFP EC50 vs Cact-3.

Sequence of human wild-type CFTR (P13569 whole entry): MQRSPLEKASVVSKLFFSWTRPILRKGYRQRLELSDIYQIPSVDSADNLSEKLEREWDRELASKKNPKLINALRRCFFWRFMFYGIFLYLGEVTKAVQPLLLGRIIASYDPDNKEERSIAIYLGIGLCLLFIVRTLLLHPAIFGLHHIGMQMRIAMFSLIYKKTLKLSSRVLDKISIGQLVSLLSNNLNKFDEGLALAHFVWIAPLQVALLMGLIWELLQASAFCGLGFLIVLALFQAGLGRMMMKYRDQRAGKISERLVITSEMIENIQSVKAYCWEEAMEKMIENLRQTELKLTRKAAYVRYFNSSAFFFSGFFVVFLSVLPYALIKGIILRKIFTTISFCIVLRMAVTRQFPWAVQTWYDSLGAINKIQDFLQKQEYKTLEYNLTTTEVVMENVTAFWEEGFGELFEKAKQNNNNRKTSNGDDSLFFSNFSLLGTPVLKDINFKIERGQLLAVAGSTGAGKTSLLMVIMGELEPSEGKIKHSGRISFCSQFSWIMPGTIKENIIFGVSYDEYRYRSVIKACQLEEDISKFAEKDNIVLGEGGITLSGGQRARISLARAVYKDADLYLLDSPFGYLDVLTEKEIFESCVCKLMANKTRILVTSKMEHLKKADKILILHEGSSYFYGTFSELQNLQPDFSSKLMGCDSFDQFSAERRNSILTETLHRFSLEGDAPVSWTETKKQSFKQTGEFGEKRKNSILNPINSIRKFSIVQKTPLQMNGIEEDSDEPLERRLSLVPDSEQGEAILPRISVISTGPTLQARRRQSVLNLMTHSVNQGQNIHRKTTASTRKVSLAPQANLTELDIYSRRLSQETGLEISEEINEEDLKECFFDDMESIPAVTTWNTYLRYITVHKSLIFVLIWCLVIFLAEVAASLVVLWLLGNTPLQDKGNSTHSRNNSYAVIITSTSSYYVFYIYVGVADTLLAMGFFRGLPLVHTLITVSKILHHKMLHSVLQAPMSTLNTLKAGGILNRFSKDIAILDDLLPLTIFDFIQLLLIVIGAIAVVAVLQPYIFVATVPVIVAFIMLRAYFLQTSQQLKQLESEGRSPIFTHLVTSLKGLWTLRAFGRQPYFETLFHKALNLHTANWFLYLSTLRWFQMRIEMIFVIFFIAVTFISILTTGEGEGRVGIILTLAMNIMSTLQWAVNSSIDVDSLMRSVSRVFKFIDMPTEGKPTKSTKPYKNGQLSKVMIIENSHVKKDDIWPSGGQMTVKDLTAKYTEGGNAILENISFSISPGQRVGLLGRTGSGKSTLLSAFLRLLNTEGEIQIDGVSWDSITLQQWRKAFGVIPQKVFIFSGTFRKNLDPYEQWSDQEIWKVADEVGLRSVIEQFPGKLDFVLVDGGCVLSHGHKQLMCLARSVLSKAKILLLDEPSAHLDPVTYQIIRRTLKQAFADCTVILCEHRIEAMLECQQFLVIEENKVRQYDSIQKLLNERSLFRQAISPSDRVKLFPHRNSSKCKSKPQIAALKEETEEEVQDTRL
T1 sequence (P13569 whole entry): as above
Sequence of endogenous CFTR channels (P13569 whole entry): as above

In the case of `O=C(O)c1ccc(/C=C2\SC(=S)N(c3cccc(C(F)(F)F)c3)C2=O)cc1` [CFTRinh-172], the “inhibition of 16d-induced CFTR whole-cell currents” value on human CFTR [1] is given as “completely inhibited”. Further, at human CFTR [2], the “block of 16d-induced CFTR chloride current” value was “completely blocked”. Also, on endogenous CFTR channels, the “inhibition of 16d-induced CFTR current (short-circuit current)” value was “fully inhibited”.

As for `COc1ccc(-c2ccnc3cc(C(=O)N4CCN(C(=O)c5ccccc5)[C@@H](C)C4)nn23)cc1OC` [16d, (S)-(4-Benzoyl-3-methylpiperazin-1-yl)(7-(3,4-dimethoxyphenyl)pyrazolo[1,5-a]pyrimidin-2-yl)methanone], in data set [3], the “effect on VRAC channel activity” value is “did not affect”. In addition, in [4] (mean conjunctiva), the AUC0-24 is given as 4734.0 ng·h/mL or ng·h/g, the AUC0-inf is 13741.0 ng·h/mL or ng·h/g and the AUC0-last is given as 9819.0 ng·h/mL or ng·h/g. In data set [4] (mean cornea), the AUC0-24 is 19409.0 ng·h/mL or ng·h/g, the AUC0-inf was 35802.0 ng·h/mL or ng·h/g and the AUC0-last is 28349.0 ng·h/mL or ng·h/g. In addition, the “adverse effects during the PK study” value in data set [4] (topical ocular administration 0.1 mg/eye) was “No adverse effects”. The “period maintained in cornea and conjunctiva” value in data set [4] (cornea and conjunctiva) was greater than 8 h. In addition, the “mRNA expression level of IL-17” value with IL-17 mRNA is listed as “significantly decreased”. Besides, in data set [5], the “effect on cell viability of ConjE” value is on record as “did not affect”. Besides, the “effect on cell viability of CorE” value in data set [6] is reported as “did not affect”. Further, in the data set with IL-1β mRNA, the “mRNA expression level of IL-1β” value was “significantly decreased”. Moreover, in data set [7], the “Emax (tear volume)” value is recorded as “higher than Cact-3” and the “effect on tear volume” value is “dose-dependent increase”. In addition, in the data set on TNF-α mRNA, the “mRNA expression level of TNF-α” value is “significantly decreased”. In [8], the “effect on scopolamine-induced tear volume decrease” value was “significantly and almost completely restored”. In addition, the “mRNA expression level of MMP-2” value with MMP-2 mRNA is recorded as “significantly decreased”. On human ANO1, the “effect on ANO1 channel activity” value is listed as “did not affect”. Also, the “effect on corneal erosion” value in data set [9] is recorded as “significantly reduced”. For the same compound, the Solubility (as a rule, how much of the substance goes into solution per volume) in data set [10] was greater than 2000 µM. The “effect on intracellular cAMP level” value with intracellular cAMP was “slightly increased”.

With `COc1ccc(-c2ccnc3cc(C(=O)Nc4ccc(C(=O)N5CCN(C)CC5)cc4)nn23)cc1OC.Cl` [11c, 7-(3,4-Dimethoxyphenyl)-N-(4-(4-methylpiperazine-1-carbonyl)phenyl)pyrazolo[1,5-a]pyrimidine-2-carboxamide Hydrochloride], the “fold more soluble than Cact-3” value in data set [11] is reported as 4017 fold. At human wild-type CFTR (YFP EC50 vs 11a), the “fold more potent than 11a” value is reported as 13 fold. The “fold less potent than Cact-3” value on human wild-type CFTR amounted to 16 fold.

Turning to `COc1ccc(-c2ccnc3cc(C(=O)Nc4ccc(C(=O)N5CCOCC5)cc4)nn23)cc1OC` [10a, 7-(3,4-Dimethoxyphenyl)-N-(4-(morpholine-4-carbonyl)phenyl)pyrazolo[1,5-a]pyrimidine-2-carboxamide], in data set [11], the Solubility entry was “completely insoluble”.

As for `COc1ccc(-c2ccnc3cc(C(=O)Nc4ccc(C(=O)O)cc4F)nn23)cc1OC` [9b, 4-(7-(3,4-Dimethoxyphenyl)pyrazolo[1,5-a]pyrimidine-2-carboxamido)-3-fluorobenzoic Acid], in data set [11] (vs 9a), the “solubility/YFP ratio, fold less than 9a” value was 2 fold. Besides, on human wild-type CFTR (YFP EC50 vs 9a), the “times more potent than 9a” value turned out to be 7 times.

Regarding `COc1ccc(-c2ccnc3cc(C(=O)N4CCN(C(=O)c5ccccc5)CC4)nn23)cc1OC` [16b, (4-Benzoylpiperazin-1-yl)(7-(3,4-dimethoxyphenyl)pyrazolo[1,5-a]pyrimidin-2-yl)methanone], the “fold more potent than 16a” value on human wild-type CFTR (YFP EC50 vs 16a) is reported as 7 fold.

In the case of `CCOc1ccc(NC(=O)c2cc3nccc(-c4ccc(OC)c(OC)c4)n3n2)cc1` [compound 1, 7-(3,4-Dimethoxyphenyl)-N-(4-ethoxyphenyl)pyrazolo[1,5-a]pyrimidine-2-carboxamide], in data set [11] (PBS, pH 7.5), the solubility (usually how much of the substance goes into solution per volume) at 90 min was found to be 0.059 µM (≈ 0.0247 µg/mL). For the same compound, the “time of maximal tear volume after administration” value in data set [7] (2.5 μL eye drops, once) was found to be 3 h. Further, the “effect on tear volume” value in data set [7] is “dose-dependent increase”. The compound also gave a Solubility in data set [10] of 72 µM (≈ 30.1 µg/mL).

In the case of `COc1ccc(-c2ccnc3cc(C(=O)Nc4ccc(C(=O)O)cc4)nn23)cc1OC` [9a, 4-(7-(3,4-Dimethoxyphenyl)pyrazolo[1,5-a]pyrimidine-2-carboxamido)benzoic Acid], in [11], the “fold more soluble than Cact-3” value stood at 88 fold. For the same compound, the “fold less potent than Cact-3” value at human wild-type CFTR turned out to be 17 fold.

Take `COc1ccc(-c2ccnc3cc(C(=O)NCc4ccc(N5CCOCC5)cc4)nn23)cc1OC` [5h, 7-(3,4-Dimethoxyphenyl)-N-(4-morpholinobenzyl)pyrazolo[1,5-a]pyrimidine-2-carboxamide]: the “fold less potent than 5f” value on human wild-type CFTR (YFP EC50 vs 5f) is given as 101 fold.

In the case of `COc1ccc(-c2ccnc3cc(C(=O)Nc4ccc(OCCN5CCOCC5)cc4)nn23)cc1OC` [5e, 7-(3,4-Dimethoxyphenyl)-N-(4-(2-morpholinoethoxy)phenyl)pyrazolo[1,5-a]pyrimidine-2-carboxamide], the Solubility entry in data set [11] is given as “completely insoluble”.

For the compound `COc1ccc(-c2ccnc3cc(C(=O)Nc4ccc(N5CCOCC5)cc4)nn23)cc1OC` [5f, 7-(3,4-Dimethoxyphenyl)-N-(4-morpholinophenyl)pyrazolo[1,5-a]pyrimidine-2-carboxamide], the Solubility result in data set [11] is listed as “completely insoluble”.

Turning to `COC(=O)c1ccc(CNC(=O)c2cc3nccc(-c4ccc(OC)c(OC)c4)n3n2)cc1` [5g, Methyl 4-((7-(3,4-dimethoxyphenyl)pyrazolo[1,5-a]pyrimidine-2-carboxamido)methyl)benzoate], the “fold less potent than 5d” value on human wild-type CFTR (YFP EC50 vs 5d) is on record as 34 fold.

Turning to `O=c1ccn([C@@H]2O[C@H](COP(=O)(O)OP(=O)(O)OP(=O)(O)OP(=O)(O)OC[C@H]3O[C@@H](n4ccc(=O)[nH]c4=O)[C@H](O)[C@@H]3O)[C@@H](O)[C@H]2O)c(=O)[nH]1` [diquafosol, reference compound], the “mRNA expression level of IL-17” value with IL-17 mRNA is given as “significantly reduced”. Besides, in the data set on TNF-α mRNA, the “mRNA expression level of TNF-α” value is listed as “significantly reduced”. Moreover, the “effect on scopolamine-induced tear volume decrease” value in [8] is listed as “significant recovery”. The “mRNA expression level of MMP-2” value with MMP-2 mRNA is given as “significantly reduced”.
